Consider 41 compounds from patent publication US7598245B2 (Vertex Pharmaceuticals Incorporated, priority 2003, dated 2009).

Structures are written as SMILES.

The target of one test is T1, c-KIT (Homo sapiens, UniProt P10721).
T1 construct: 0.02% BSA and 25 nM c-KIT
As to the kind of experiment: Inhibition of c-KIT, radiometric filter-binding assay. The note with it: 700 μM ATP, pE4Y substrate. In kind it is biochemical. The procedure: Compounds are screened for their ability to inhibit c-KIT activity using a radiometric filter-binding assay. This assay monitors the ^33P incorporation into a substrate poly(Glu, Tyr) 4:1 (pE4Y). Reactions are carried out in a solution containing 100 mM HEPES (pH 7.5), 10 mM MgCl2, 25 mM NaCl, 1 mM DTT, 0.01% BSA and 2.5% DMSO. Final substrate concentrations in the assay were 700 μM ATP and 0.5 mg/mL pE4Y (both from Sigma Chemicals, St Louis, Mo.). The final concentration of compounds is generally between 0.01 and 5 μM. Typically, a 12-point titration is conducted by preparing serial dilutions from 10 mM DMSO stock of test compound. Reactions were carried out at room temperature.
Two assay solutions are prepared. Solution 1 contains 100 mM HEPES (pH 7.5), 10 mM MgCl2, 25 mM NaCl, 1 mg/ml pE4Y and 1.4 mM ATP (containing 0.5 μCi of [γ-^33P]ATP for each reaction). Solution 2 contains 100 mM HEPES (pH 7.5), 10 mM MgCl2, 25 mM NaCl, 2 mM DTT, 0.02% BSA and 25 nM c-KIT. The assay is run on a 96 well plate by mixing 33 μL of Solution1 and 1.65 μL of the test compounds. The reaction is initiated with 33 μL of Solution2. After incubation for 20 minutes at room temperature, the reaction was stopped with 50 μL of 10% TCA containing 0.2 mM of ATP. All of the reaction volume is then transferred to a filter plate and washed with 5% TCA by a Harvester9600 from TOMTEC (Hamden, Conn.). The amount of ^33P incorporation into pE4y is analyzed by a Packard TopCount Microplate Scintillation Counter (Meriden, Conn.). The data is fitted using Prism software to get an IC50 or Ki.

The target of a further test is GSK-3β (AA 1-420) (Homo sapiens, UniProt P49841). As to the kind of experiment: Inhibition of GSK-3, coupled enzyme system. It is filed as biochemical. The note with it: 20 μM ATP, 30° C. The protocol:
Compounds are screened for their ability to inhibit GSK-3β (AA 1-420) activity using a standard coupled enzyme system [Fox et al. Protein Sci. 1998, 7, 2249]. Reactions are carried out in a solution containing 100 mM HEPES (pH 7.5), 10 mM MgCl2, 25 mM NaCl, 300 μM NADH, 1 mM DTT and 1.5% DMSO. Final substrate concentrations in the assay are 20 μM ATP (Sigma Chemicals, St Louis, Mo.) and 300 μM peptide (American Peptide, Sunnyvale, Calif.). Reactions are carried out at 30° C. and 20 nM GSK-3β. Final concentrations of the components of the coupled enzyme system are 2.5 mM phosphoenolpyruvate, 300 μM NADH, 30 μg/ml pyruvate kinase and 10 μg/ml lactate dehydrogenase.
An assay stock buffer solution is prepared containing all of the reagents listed above with the exception of ATP and the test compound of interest. The assay stock buffer solution (175 μl) is incubated in a 96 well plate with 5 μl of the test compound of interest at final concentrations spanning 0.002 μM to 30 μM at 30° C. for 10 min. Typically, a 12 point titration is conducted by preparing serial dilutions (from 10 mM compound stocks) with DMSO of the test compounds in daughter plates. The reaction is initiated by the addition of 20 μl of ATP (final concentration 20 μM). Rates of reaction are obtained using a Molecular Devices Spectramax plate reader (Sunnyvale, Calif.) over 10 min at 30° C. The Ki values are determined from the rate data as a function of inhibitor concentration.

Sequence of GSK-3β (AA 1-420) (P49841 whole entry, the tested form may be a part): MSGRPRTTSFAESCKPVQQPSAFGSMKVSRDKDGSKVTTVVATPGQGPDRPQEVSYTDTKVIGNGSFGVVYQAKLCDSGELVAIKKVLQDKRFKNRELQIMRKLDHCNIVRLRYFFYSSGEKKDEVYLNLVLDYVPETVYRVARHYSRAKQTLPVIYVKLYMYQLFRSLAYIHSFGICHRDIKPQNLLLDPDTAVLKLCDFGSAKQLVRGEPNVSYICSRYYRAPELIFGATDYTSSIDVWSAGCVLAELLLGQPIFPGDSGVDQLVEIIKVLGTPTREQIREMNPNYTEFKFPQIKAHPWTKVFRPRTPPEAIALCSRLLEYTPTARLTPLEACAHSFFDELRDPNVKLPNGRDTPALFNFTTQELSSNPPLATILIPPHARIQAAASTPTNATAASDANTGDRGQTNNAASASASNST
T1 sequence (P10721 26-976): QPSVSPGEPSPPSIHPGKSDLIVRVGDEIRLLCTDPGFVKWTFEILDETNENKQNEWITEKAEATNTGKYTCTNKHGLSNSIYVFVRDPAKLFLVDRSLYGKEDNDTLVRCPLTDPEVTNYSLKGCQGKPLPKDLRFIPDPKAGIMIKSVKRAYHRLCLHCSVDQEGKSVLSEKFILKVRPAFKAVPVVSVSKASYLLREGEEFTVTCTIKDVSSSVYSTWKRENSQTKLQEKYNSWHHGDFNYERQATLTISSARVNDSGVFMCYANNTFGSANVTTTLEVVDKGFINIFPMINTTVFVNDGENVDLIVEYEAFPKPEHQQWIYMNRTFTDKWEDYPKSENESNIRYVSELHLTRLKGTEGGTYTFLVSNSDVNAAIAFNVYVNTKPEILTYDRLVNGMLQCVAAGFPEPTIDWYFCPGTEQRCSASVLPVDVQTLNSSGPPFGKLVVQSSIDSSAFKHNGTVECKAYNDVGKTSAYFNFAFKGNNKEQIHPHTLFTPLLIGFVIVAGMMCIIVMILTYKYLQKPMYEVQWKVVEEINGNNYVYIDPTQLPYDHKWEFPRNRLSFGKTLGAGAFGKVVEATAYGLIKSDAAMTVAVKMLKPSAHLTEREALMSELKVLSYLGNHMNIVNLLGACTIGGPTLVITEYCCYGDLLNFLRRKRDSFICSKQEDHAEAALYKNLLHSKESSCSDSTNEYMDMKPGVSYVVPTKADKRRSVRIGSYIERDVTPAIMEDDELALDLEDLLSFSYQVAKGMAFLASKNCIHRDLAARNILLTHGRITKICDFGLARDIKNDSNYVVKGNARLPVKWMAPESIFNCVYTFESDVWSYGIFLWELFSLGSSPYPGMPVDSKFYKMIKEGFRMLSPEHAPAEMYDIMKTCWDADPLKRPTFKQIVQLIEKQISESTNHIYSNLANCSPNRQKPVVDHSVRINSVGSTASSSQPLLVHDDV

For the compound `c1ccc(-n2cnc(Nc3ccc4c(c3)OCCO4)n2)cc1` [Compound I-44], the Ki at c-KIT was less than 50 nM; at GSK-3β (AA 1-420) it was more than 1000 nM.
In the same order, the values of `CCOc1ccc(Nc2ncn(-c3ccccc3)n2)cc1` [Compound I-47] are less than 50 nM and more than 1000 nM.
Take `c1ccc(Nc2ncn(-c3ccnc(N4CCCCC4)c3)n2)cc1` [Compound I-49, phenyl-[1-(3,4,5,6-tetrahydro-2H-[1,2′]bipyridinyl-4′-yl)-1H-[1,2,4]triazol-3-yl]-amine]: the Ki on GSK-3β (AA 1-420) is 500 to 1000 nM.
In the case of `c1ccc(Nc2ncn(-c3ccnc(NC4CCCCC4)c3)n2)cc1` [Compound I-50], the Ki on GSK-3β (AA 1-420) was 500 to 1000 nM.
For the compound `CN(CCO)c1cc(-n2cnc(Nc3ccccc3)n2)ccn1` [Compound I-51], the Ki on GSK-3β (AA 1-420) is less than 500 nM.
Still for that read-out and setting: the figure for `c1ccc(Nc2ncn(-c3ccnc(N4CCCCCCC4)c3)n2)cc1` [Compound I-52] is 500 to 1000 nM.
Same read-out and setting: then `CN(C)CCCN(C)c1cc(-n2cnc(Nc3ccccc3)n2)ccn1` [Compound I-53], with more than 1000 nM.
Consider `CCN(CCO)c1cc(-n2cnc(Nc3ccccc3)n2)ccn1` [Compound I-54], for which the Ki at GSK-3β (AA 1-420) was less than 500 nM.
As for `CN(Cc1ccccc1)c1cc(-n2cnc(Nc3ccccc3)n2)ccn1` [Compound I-55], the Ki at c-KIT was less than 50 nM; at GSK-3β (AA 1-420), more than 1000 nM.
For `CC1CCCN1c1cc(-n2cnc(Nc3ccccc3)n2)ccn1` (centres unmarked) [Compound I-56] the same measures were less than 50 nM and less than 500 nM.
For the compound `CN(Cc1cccnc1)c1cc(-n2cnc(Nc3ccccc3)n2)ccn1` [Compound I-57], on GSK-3β (AA 1-420), the Ki is less than 500 nM.
`CCCN(CCO)c1cc(-n2cnc(Nc3ccccc3)n2)ccn1` [Compound I-58]: the values for the Ki at c-KIT and on GSK-3β (AA 1-420) were less than 50 nM and less than 500 nM, respectively.
As to `COCCN(C)c1cc(-n2cnc(Nc3ccccc3)n2)ccn1` [Compound I-59, (2-methoxy-ethyl)-methyl-[4-(3-phenylamino-[1,2,4]triazol-1-yl)-pyridin-2-yl]-amine], on GSK-3β (AA 1-420), the Ki was less than 500 nM.
Same read-out and setting: then `CCN(CC)CCNc1cc(-n2cnc(Nc3ccccc3)n2)ccn1` [Compound I-60], with more than 1000 nM; and `CN1C(C)(C)CC(Nc2cc(-n3cnc(Nc4ccccc4)n3)ccn2)CC1(C)C` [Compound I-61], with more than 1000 nM; and `CC(C)CCN(C)c1cc(-n2cnc(Nc3ccccc3)n2)ccn1` [Compound I-62, methyl-(3-methyl-butyl)-[4-(3-phenylamino-[1,2,4]triazol-1-yl)-pyridin-2-yl]-amine], with less than 500 nM.
At GSK-3β (AA 1-420), `O=c1[nH]c2ccccc2n1C1CCN(c2cc(-n3cnc(Nc4ccccc4)n3)ccn2)CC1` [Compound I-63] displayed a Ki of more than 1000 nM.
On the same count and under the same terms, the figure for `O=C(C1CCCO1)N1CCN(c2cc(-n3cnc(Nc4ccccc4)n3)ccn2)CC1` (centres unmarked) [Compound I-64] is more than 1000 nM; for `CCCC(=O)N1CCCN(c2cc(-n3cnc(Nc4ccccc4)n3)ccn2)CC1` [Compound I-68] it is more than 1000 nM; for `CC(C)C(=O)N1CCCN(c2cc(-n3cnc(Nc4ccccc4)n3)ccn2)CC1` [Compound I-69] it is more than 1000 nM.
Still for that read-out and setting: the figure for `CC(C)CC(=O)N1CCCN(c2cc(-n3cnc(Nc4ccccc4)n3)ccn2)CC1` [Compound I-70] is more than 1000 nM; for `CCOC(=O)c1ccc(Nc2ncn(-c3ccnc(N4CCCN(C(C)=O)CC4)c3)n2)cc1` [Compound I-76] it is more than 1000 nM.
`CC(=O)N1[C@H](C)CN(c2cc(-n3cnc(Nc4ccc(NC(=O)c5cccs5)cc4)n3)ccn2)C[C@@H]1C` [Compound I-80]: the Ki was less than 50 nM on c-KIT and more than 1000 nM on GSK-3β (AA 1-420).
Take `CC(=O)N1[C@H](C)CN(c2cc(-n3cnc(Nc4ccc(NC(=O)c5ccco5)cc4)n3)ccn2)C[C@@H]1C` [Compound I-81, Furan-2-carboxylic acid (4-{1-[2-(4-acetyl-3,5-dimethyl-piperazin-1-yl)-pyridin-4-yl]-1H-[1,2,4]triazol-3-ylamino}-phenyl)-amide]: the figures for the Ki on c-KIT and on GSK-3β (AA 1-420) were 50 to 500 nM and more than 1000 nM, respectively.
As for `CC(=O)N1[C@H](C)CN(c2cc(-n3cnc(Nc4ccc(NC(=O)OCC(C)C)cc4)n3)ccn2)C[C@@H]1C` [Compound I-90], the Ki at c-KIT was 50 to 500 nM; at GSK-3β (AA 1-420), more than 1000 nM.
In the same order, the values of `CC(=O)N1[C@H](C)CN(c2cc(-n3cnc(Nc4ccc(NC(=O)OCC(C)(C)C)cc4)n3)ccn2)C[C@@H]1C` [Compound I-91] are 50 to 500 nM and more than 1000 nM.
`CC(=O)N1[C@H](C)CN(c2cc(-n3cnc(Nc4ccc(N5CCN(S(=O)(=O)c6ccc(C)cc6)CC5)cc4)n3)ccn2)C[C@@H]1C` [Compound I-92]: the Ki on c-KIT was 50 to 500 nM; at GSK-3β (AA 1-420), more than 1000 nM.
Consider `O=C(Nc1cc(-n2cnc(Nc3ccccc3)n2)ccn1)C1CCCCC1` [Compound I-93], for which the Ki on GSK-3β (AA 1-420) was less than 500 nM.
Still for that read-out and setting: the figure for `O=C(CC1CCCC1)Nc1cc(-n2cnc(Nc3ccccc3)n2)ccn1` [Compound I-94, 2-Cyclopentyl-N-[4-(3-phenylamino-[1,2,4]triazol-1-yl)-pyridin-2-yl]-acetamide] is less than 500 nM.
`O=C(CCc1ccccc1)Nc1cc(-n2cnc(Nc3ccccc3)n2)ccn1` [Compound I-95] had a Ki on GSK-3β (AA 1-420) of less than 500 nM.
The same measure, in the same setting: then `O=C(Cc1ccccc1)Nc1cc(-n2cnc(Nc3ccccc3)n2)ccn1` [Compound I-96], with less than 500 nM.
Consider `CC(=O)N1[C@H](C)CN(c2cc(-n3cnc(Nc4ccc(N5CCN(C(=O)OC(C)(C)C)CC5)cc4)n3)ccn2)C[C@@H]1C` [Compound I-97, 4-(4-{1-[2-(4-Acetyl-3,5-dimethyl-piperazin-1-yl)-pyridin-4-yl]-1H-[1,2,4]triazol-3-ylamino}-phenyl)-piperazine-1-carboxylic acid tert-butyl ester], for which the Ki was 50 to 500 nM on c-KIT and more than 1000 nM on GSK-3β (AA 1-420).
With `CCNC(=O)Nc1ccc(Nc2ncn(-c3ccnc(N4C[C@@H](C)N(C(C)=O)[C@@H](C)C4)c3)n2)cc1` [Compound I-98, 1-(4-{1-[2-(4-Acetyl-3,5-dimethyl-piperazin-1-yl)-pyridin-4-yl]-1H-[1,2,4]triazol-3-ylamino}-phenyl)-3-ethyl-urea], the Ki on c-KIT is 50 to 500 nM; on GSK-3β (AA 1-420), more than 1000 nM.
On to `CCCNC(=O)Nc1ccc(Nc2ncn(-c3ccnc(N4C[C@@H](C)N(C(C)=O)[C@@H](C)C4)c3)n2)cc1` [Compound I-99], for which the Ki on c-KIT was 50 to 500 nM; at GSK-3β (AA 1-420), more than 1000 nM.
For the compound `CC(=O)N1[C@H](C)CN(c2cc(-n3cnc(Nc4ccc(NC(=O)NC(C)C)cc4)n3)ccn2)C[C@@H]1C` [Compound I-100], the values for the Ki on c-KIT and on GSK-3β (AA 1-420) were 50 to 500 nM and more than 1000 nM, respectively.
Consider `CC(=O)N1[C@H](C)CN(c2cc(-n3cnc(Nc4ccc(NC(=O)NC(C)(C)C)cc4)n3)ccn2)C[C@@H]1C` [Compound I-101], for which the Ki on c-KIT was 50 to 500 nM; on GSK-3β (AA 1-420), more than 1000 nM.
`CC(C)(C)CC(=O)Nc1cc(-n2cnc(Nc3ccccc3)n2)ccn1` [Compound I-102] gave an inhibitory constant (Ki) at GSK-3β (AA 1-420) of more than 1000 nM.
Still for that read-out and setting: then `c1ccc(-n2cnc(Nc3ccc(N4CCOCC4)cc3)n2)cc1` [Compound I-106], with more than 1000 nM.
Still for that read-out and setting: then `c1ccc(-n2cnc(Nc3ccnc(NCCN4CCOCC4)c3)n2)cc1` [Compound I-107], with more than 1000 nM; and `c1ccc(-n2cnc(Nc3ccc(N4CCOCC4)nc3)n2)cc1` [Compound I-134], with more than 1000 nM.
On GSK-3β (AA 1-420), `CN1CCN(c2ccc(Nc3ncn(-c4ccccc4)n3)cn2)CC1` [Compound I-135] returned an inhibition constant (Ki) of more than 1000 nM.
